From ChEMBL document CHEMBL1275266, “Synthesis, cytotoxic activities and DNA binding properties of β-carboline derivatives” (Eur J Med Chem, 2010)
Activity calls are given as the source filed them. The rule behind the calls is not given here.

Experiments:
Calf thymus DNA [1] = assay: Binding affinity to calf thymus DNA at 10 uM by fluorescence spectroscopy; type: nucleic-acid assay; conditions: Bos taurus
A-375 = assay: Cytotoxicity against human A375 cells by MTT assay; type: functional, cell-based
MCF7 = assay: Cytotoxicity against human MCF7 cells by MTT assay; type: functional, cell-based
769-P = assay: Cytotoxicity against human 769-P cells by MTT assay; type: functional, cell-based
Calf thymus DNA [2] = assay: Binding affinity to calf thymus DNA at 20 uM by UV spectroscopy; type: nucleic-acid assay; conditions: Bos taurus
OS-RC-2 = assay: Cytotoxicity against human OS-RC2 cells by MTT assay; type: functional, cell-based
Calf thymus DNA [3] = assay: Binding affinity to calf thymus DNA assessed as change in melting temperature at 20 uM by thermal denaturation assay; type: nucleic-acid assay; conditions: Bos taurus
786-0 = assay: Cytotoxicity against human 786-0 cells by MTT assay; type: functional, cell-based
HepG2 = assay: Cytotoxicity against human HepG2 cells by MTT assay; type: functional, cell-based
BGC-823 = assay: Cytotoxicity against human BGC823 cells by MTT assay; type: functional, cell-based
KB = assay: Cytotoxicity against human KB cells by MTT assay; type: functional, cell-based
CWR22R = assay: Cytotoxicity against human 22Rv1 cells by MTT assay; type: functional, cell-based
HT-29 = assay: Cytotoxicity against human HT-29 cells by MTT assay; type: functional, cell-based

| SMILES | Activity (Calf thymus DNA [1]) | IC50 (A-375) | IC50 (MCF7) | IC50 (769-P) | Activity (Calf thymus DNA [2]) | IC50 (OS-RC-2) | ΔTm (Calf thymus DNA [3]) | IC50 (786-0) | IC50 (HepG2) | IC50 (BGC-823) | IC50 (KB) | IC50 (CWR22R) | IC50 (HT-29) |
| --- | --- | --- | --- | --- | --- | --- | --- | --- | --- | --- | --- | --- | --- |
| CCCCn1c2ccccc2c2cc(CNCCCN(CC)CC)nc(-c3cc(OC)c(OC)c(OC)c3)c21 | Active | 11.3 µM | 6.8 µM | 7.5 µM | Active | 25.7 µM | 14.8 °C | 7.7 µM | 8.5 µM | 6.1 µM | 37.3 µM | 4.2 µM | 14 µM |
| CCN(CC)CCCNCc1cc2c3ccccc3n(CCCc3ccccc3)c2c(-c2cc(OC)c(OC)c(OC)c2)n1 | Active | 2.6 µM | 4.9 µM | 2.7 µM | Active | 8.3 µM | 14.6 °C | 4.7 µM | 1.7 µM | 5.9 µM | 6.5 µM | 7 µM | 5.9 µM |
| CCN(CC)CCCCNCc1cc2c3ccccc3n(CCCc3ccccc3)c2c(-c2cc(OC)c(OC)c(OC)c2)n1 |  | 3.7 µM | 5.2 µM | 3.9 µM |  | 8.7 µM |  | 5.5 µM | 2.1 µM | 6.1 µM | 6.9 µM | 6.3 µM | 7.5 µM |
| CCN(CC)CCCCNCc1cc2c3ccccc3n(C)c2c(-c2cc(OC)c(OC)c(OC)c2)n1 |  | > 50 µM | 36.5 µM | 19.1 µM |  | > 50 µM |  | 20.7 µM | 7.1 µM | 46.3 µM | 42.8 µM | > 50 µM | > 50 µM |
| COc1cc(-c2nc(CNCCCN(C)C)cc3c2[nH]c2ccccc23)cc(OC)c1OC |  | > 50 µM | > 50 µM | > 50 µM |  | > 50 µM |  | > 50 µM | 42.7 µM | > 50 µM | > 50 µM | > 50 µM | > 50 µM |
| COc1cc(-c2nc(CNCCCN(C)C)cc3c4ccccc4n(C)c23)cc(OC)c1OC |  | > 50 µM | 17.1 µM | > 50 µM |  | > 50 µM |  | 30.2 µM | 15.4 µM | > 50 µM | > 50 µM | > 50 µM | > 50 µM |
| CC(=O)O[C@H]1C(=O)[C@@]2(C)[C@H]([C@H](OC(=O)c3ccccc3)[C@]3(O)C[C@H](OC(=O)[C@H](O)[C@@H](NC(=O)c4ccccc4)c4ccccc4)C(C)=C1C3(C)C)[C@]1(OC(C)=O)CO[C@@H]1C[C@@H]2O [PACLITAXEL] |  |  |  |  |  | < 0.08 µM |  | < 0.08 µM | < 0.08 µM | 1.5 µM | 0.08 µM |  |  |
| CCN(CC)CCCNCc1cc2c3ccccc3n(C)c2c(-c2cc(OC)c(OC)c(OC)c2)n1 | Active | 48.4 µM | 28.3 µM | 34.6 µM | Active | > 50 µM | 17.3 °C | 12.1 µM | 8.2 µM | 48.5 µM | 29 µM | > 50 µM | 43.1 µM |
| COc1cc(-c2nc(CNCCCN(C)C)cc3c4ccccc4n(CCCc4ccccc4)c23)cc(OC)c1OC |  | 3.7 µM | 6.7 µM | 10.4 µM |  | 9.4 µM |  | 6 µM | 3.9 µM | 8.5 µM | 4.4 µM | 10 µM | 7.9 µM |
| CCN(CC)CCNCc1cc2c3ccccc3n(C)c2c(-c2cc(OC)c(OC)c(OC)c2)n1 |  | > 50 µM | > 50 µM | > 50 µM |  | > 50 µM |  | 33.7 µM | 14.8 µM | > 50 µM | > 50 µM | > 50 µM | > 50 µM |
| CCN(CC)CCCNCc1cc2c([nH]c3ccccc32)c(-c2cc(OC)c(OC)c(OC)c2)n1 |  | > 50 µM | > 50 µM | > 50 µM |  | 46.8 µM | 24.8 °C | > 50 µM | 39.6 µM | > 50 µM | > 50 µM | > 50 µM | > 50 µM |
| COc1cccc2c1C(=O)c1c(O)c3c(c(O)c1C2=O)C[C@@](O)(C(=O)CO)C[C@@H]3O[C@H]1C[C@H](N)[C@H](O)[C@H](C)O1 |  |  |  |  |  |  | 32 °C |  |  |  |  |  |  |
| CCCCn1c2ccccc2c2cc(CNCCCN(C)C)nc(-c3cc(OC)c(OC)c(OC)c3)c21 |  | 11 µM | 9.3 µM | 7.3 µM |  | 25.6 µM |  | 6 µM | 8.2 µM | 6.8 µM | 33.5 µM | 10.8 µM | 11.3 µM |
| CCCCn1c2ccccc2c2cc(CNCCN(CC)CC)nc(-c3cc(OC)c(OC)c(OC)c3)c21 |  | 14.5 µM | > 50 µM | 14.5 µM |  | 45.4 µM |  | 13.9 µM | 18.6 µM | 13.9 µM | 44.9 µM | 8.9 µM | > 50 µM |
| CCCCn1c2ccccc2c2cc(CNCCCCN(CC)CC)nc(-c3cc(OC)c(OC)c(OC)c3)c21 |  | 11 µM | 5.3 µM | 11.6 µM |  | 28.7 µM |  | 11 µM | 2.5 µM | 19.2 µM | 7.6 µM | 8.5 µM | 19.8 µM |
| CCN(CC)CCNCc1cc2c3ccccc3n(CCCc3ccccc3)c2c(-c2cc(OC)c(OC)c(OC)c2)n1 |  | 12 µM | 8.1 µM | 3 µM |  | 3 µM |  | 3.4 µM | 3.8 µM | 2.7 µM | 2.5 µM | 18.9 µM | 10.9 µM |
